Entries after “also recorded” stand apart in the source; their conditions may differ. Square brackets hold non-standard residues; d marks the D form. Peptide text beside a SMILES is read from it. Lys(N3) = [N-]=[N+]=NCCCC[C@H](N)C(=O)O
Assays:
Aβ42 [1] = biological target: T1, Aβ42 (Homo sapiens, UniProt P05067); experiment: Grating-Coupled Interferometry (GCI) binding to immobilized Aβ42; details: GCI fit quality parameter
Method: The Grating‐Coupled Interferometry (GCI) is a widely used analytical technique for characterizing intermolecular interactions. It allows quantitative measurements of both the affinity and the kinetics of the binding events. This high sensitivity label‐free method was exploited to measure the interactions of Aβ42 with Cu‐Ph‐Pep , Ph‐Pep , and Zn‐Ph‐Pep (Figure 5S). Control experiments with pristine MCPTPyP and the peptide GPGKLVFF ( Pep ) were carried out for comparison. The calculated association and dissociation kinetic constants (kon and koff, respectively) and the thermodynamic binding constant (KD), are summarized in Table 1. The obtained values indicate that all the conjugates show good affinities with Aβ42. It is also clear from Table 1 that the peptide moiety is fundamental for the molecular recognition of the Aβ42 peptide.[48] […] Nevertheless, it is important to emphasize that the interaction with Aβ42 is primarily mediated by the peptide rather than by the porphyrin macrocycle. We next investigated whether these peptide derivatives could be employed as molecular probes for the detection of Aβ42 aggregated species. A new set of CD experiments was then carried out with Aβ42 at 20 μM both in the absence and in the presence of the porphyrin‐peptide conjugates at 1 : 1 molar ratio in the UV (195–350) and Visible (350–500) regions. […] The signal rapidly evolved toward the typical β‐sheet profile (already within 24 h) with a single minimum at 216 nm, an x‐axis intercept at 202 nm and a maximum shift at a wavelength 195 nm.[49] […] For the sake of comparison, the CD spectra of the porphyrin‐peptide conjugates at 20 μM were also recorded in the same experimental conditions, both in the far‐UV and Visible regions (Figure 6S).
The experiments were performed on a Creoptix WAVE system (Creoptix). Borate buffer (100 mM sodium borate pH 9.0, 1 M NaCl) was used for chip conditioning. Aβ42 peptide (20 μg/ml in Na Acetate pH 4.5) was immobilized on 4PCH WAVE chips (quasiplanar polycarboxylate surface; Creoptix) according to the manufacturer instructions at a final density of 1910±40 pg/mm^2. Single‐cycle sequential injections of dilution series for each Porphyrin‐Peptide conjugates in running buffer (PBS, 0.005 % Tween 20, 1 % DMSO, 0.2 mg/ml BSA) were performed at 25 °C, using a flow rate of 100 μl/min. In details, for the conjugate Cu‐Ph‐Pep , 1 : 2 dilution series starting from 200 μM were injected for 10 s association time, 45 s dissociation time, followed by a dissociation time of 600 s for the last higher concentration injection. Finally, for the conjugates Ph‐Pep and Zn‐Ph‐Pep , 1 : 2 dilution series starting from 50 μM and 100 uM, respectively, were injected for 30 s association time, 45 s dissociation time, followed by a dissociation time of 600 s for the last higher concentration injection. Blank injections were used for double referencing and a DMSO calibration curve for bulk correction. Analysis and correction of the obtained data were performed using the Creoptix WAVE control software (correction applied: X and Y offset; DMSO calibration; double referencing). Mass transport binding models with bulk correction were used to fit all experiments. All the experiments have been performed at least in triplicate.
Figure 5S. Quantitative binding kinetics of Aβ42 vs a) MCPTPyP; b) Cu-Ph-Pep; c) Ph-Pep; d) Zn-Ph-Pep; and e) Pep measured by GCI. All curves were blank subtracted. Experiments were performed in triplicate. All the quality assessments (i.e., χ2 shown in Table 1 of the main text , parameter errors, and residual plots were acceptable; the sensorgrams had sufficient curvatures an d the kinetic constant k off were within the measurable range) were fulfilled. Descriptive Statistical Analysis was employed to calculate the mean of the obtained values of k on, koff and KD as a measure of central tendency and standard deviations of the former values were computed as a measure of dispersion.
Figure 6S. […]

[2] = UV-Vis self-aggregation of the conjugates; format: physicochemical; details: UV-Vis 300–650 nm, 5 μM, 10 mM phosphate buffer pH 7.4, room temperature, 0–120 h
Method: We first studied the effects of peptide conjugation on the porphyrin chromophore, by UV‐Vis spectra in the region between 300–650 nm. The spectra were recorded using a solution of 5 μM Porphyrin‐peptide conjugate in 10 mM phosphate buffer pH 7.4. The UV‐Vis profile of the porphyrin precursor MCPTPyP, recorded at the same concentration, is also shown for the sake of comparison (Figure 1).
(§1) Peptide conjugation influences the spectral features of the porphyrin chromophore as evidenced by the red shift in the absorption maximum in the region of the Soret band region. The Q bands are also affected, particularly in the Cu‐Ph‐Pep and Zn‐Ph‐Pep compounds (Figure 1). In this case the presence of a metal ion within the porphyrin's core might contribute to the observed spectral profile of these compounds. […] The fluorescence spectra of the investigated systems were also acquired in view of the interaction of the studied conjugates with cells (see below biological section).[41] The fluorescence spectra were recorded with the photoexcitation at 425±5 nm, in 10 mM phosphate buffer pH 7.4 and 5 μM concentration. The emission spectrum of the porphyrin precursor MCPTPyP ( Ph ) was also obtained for the sake of comparison.
(§2) Spectra were recorded on a Jasco V‐670 Spectrophotometer at room temperature. All measurements were performed in the 300–650 nm wavelength region, in a 10 mM phosphate buffer solution at pH 7.4 using a 1 cm path length quartz cell. The spectra of all the peptide‐porphyrin conjugates, either in the absence or in the presence of equimolar Aβ42, were acquired at 5 μM. In some cases, the same sample solution was used to run the CD spectra. The final concentrations of Aβ42 and peptide conjugates were 5 μM (1 : 1 molar ratio).

[3] = CD control: β-sheet propensity of the conjugates alone; format: physicochemical; details: 10 mM phosphate buffer pH 7.4, room temperature, up to 120 h
Method: (§3) The UV‐Vis spectra of porphyrin‐peptide conjugates (5 μM) were recorded in the presence of an equimolar ration of Aβ42 monomers at 0, 24, 48 and 120 h (Figure 2S). […] Therefore, the interaction of the peptide‐porphyrin conjugates with Aβ was further studied using CD spectroscopy. The Aβ42 aggregation process was monitored either in the absence or in the presence of an equimolar amount of the conjugated peptides. A series of CD control experiments were preventively carried out to assess the propensity of the porphyrin‐peptide conjugates to adopt a β‐sheet conformation. The corresponding CD curves are shown in the supplementary material (Figure 3S). […] We then evaluated the ability of the porphyrin‐peptide conjugates to affect the Aβ42’s aggregation process. This was accomplished by running a series of CD experiments on the binary systems in the same experimental conditions as the control CD measurements. A 5 μM Aβ42 sample was used as a positive control of the aggregation process (Figure 3, panel a). In this case, the curve profiles indicate that at 0 h, Aβ42 is predominantly in the random coil conformation, as evidenced by the negative ellipticity around 200 nm. […] The typical dichroic profile characterized by a negative ellipticity at λ=222 nm and a positive band at λ=200 is indicative of this event (Figure 3, panel a).
Spectra were recorded on a J‐810 spectrometer (Jasco, Japan) under a constant flow of N2 at room temperature. The CD measurements were performed in the wavelength regions (190–260 nm, 195–350 nm and 350–500 nm) using a 1 cm path length quartz cell. All aggregation kinetics were monitored up to 120 hours. The CD spectra were recorded for Aβ42 (5 μM and 20 μM) monomer in the absence or in the presence of porphyrin‐peptide conjugates (5 μM and 20 μM for the 1 : 1 molar ratios). Monomerized samples of Aβ42 (5 μM and 20 μM) were solubilized in 50 μL of NaOH 20 mM (2,5 %) and after were diluted with 1950 μL of 10 mM phosphate buffer at pH 7.4 pure or containing the solubilized conjugates.

Aβ42 [4] = biological target: T1, Aβ42; experiment: UV-Vis of conjugates with equimolar Aβ42; format: biochemical; details: 5 μM conjugate, equimolar Aβ42, 10 mM phosphate buffer pH 7.4, 0, 24, 48 and 120 h
Method: as §3, §2

[5] = Porphyrin fluorescence in buffer; format: physicochemical; details: 5 μM, 10 mM phosphate buffer pH 7.4, excitation 425 nm; vs pristine MCPTPyP
Description: as §1
Spectra were recorded on a Horiba Fluoro‐max‐4 spectrofluorometer from 440–800 nm in 1 nm steps, at an excitation wavelength λexc=425 nm, at room temperature. The final fluorescence spectra represent averages of at least three measurements. Bandwidths of 5 nm for both excitation and emission were used. The sample of the compound used to record absorption spectra were the same as those for the CD spectra.

full-length Aβ = details: ref [44], [45]; cited from earlier work
Description: In the present work we employed UV‐Vis, CD spectroscopy and Bis‐Ans fluorescence to explore the molecular processes underlying the interactions occurring between Aβ and the porphyrin‐peptide conjugates.

T1 sequence (P05067 672-713 limits assumed): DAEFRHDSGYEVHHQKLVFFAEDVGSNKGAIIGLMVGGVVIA

Row | Molecule | χ^2 (average of the squared residuals, fitting confidence) (Aβ42 [1]) | self-aggregation [2] | propensity to adopt β-sheet conformation (conjugate alone) [3] | UV-Vis spectral change in presence of Aβ42 (Aβ42 [4]) | fluorescence emission intensity [5] | recognition of full-length Aβ (full-length Aβ)
1 | COC(=O)[C@H](Cc1cn(CCCC[C@H](NC(=O)CNC(C)=O)C(=O)N2CCC[C@H]2C(=O)NCC(=O)N[C@@H](CCCCN)C(=O)N[C@@H](CC(C)C)C(=O)N[C@H](C(=O)N[C@@H](Cc2ccccc2)C(=O)N[C@@H](Cc2ccccc2)C(N)=O)C(C)C)nn1)NC(=O)c1ccc(-c2c3nc(c(-c4cc[n+](C)cc4)c4ccc([nH]4)c(-c4cc[n+](C)cc4)c4nc(c(-c5cc[n+](C)cc5)c5ccc2[nH]5)C=C4)C=C3)cc1 [Ph‐Pep] | 0.71±0.04 | absence of significant self‐aggregation phenomena | can fairly adopt β‐sheet conformation over time | minor variations in the spectral profiles | somewhat decreased | 
2 | CC(=O)NCC(=O)N[C@@H](CCCCN=[N+]=[N-])C(=O)N1CCC[C@H]1C(=O)NCC(=O)N[C@@H](CCCCN)C(=O)N[C@@H](CC(C)C)C(=O)N[C@H](C(=O)N[C@@H](Cc1ccccc1)C(=O)N[C@@H](Cc1ccccc1)C(N)=O)C(C)C [Pep] (Ac-G[Lys(N3)]PGKLVFF-NH2) | 0.79±0.08 |  |  |  |  | 
3 | KLVFF [well-known hydrophobic core Aβ16–20 (KLVFF)] |  |  |  |  |  | can recognize and co‐assemble with full‐length Aβ
4 | COC(=O)[C@H](Cc1cn(CCCC[C@H](NC(=O)CNC(C)=O)C(=O)N2CCC[C@H]2C(=O)NCC(=O)N[C@@H](CCCCN)C(=O)N[C@@H](CC(C)C)C(=O)N[C@H](C(=O)N[C@@H](Cc2ccccc2)C(=O)N[C@@H](Cc2ccccc2)C(N)=O)C(C)C)nn1)NC(=O)c1ccc(-c2c3nc(c(-c4cc[n+](C)cc4)c4ccc([nH]4)c(-c4cc[n+](C)cc4)c4nc(c(-c5cc[n+](C)cc5)c5ccc2[nH]5)C=C4)C=C3)cc1 [Cu‐Ph‐Pep] | 0.76±0.07 | absence of significant self‐aggregation phenomena | can fairly adopt β‐sheet conformation over time | minor variations in the spectral profiles; also recorded: observable absorbance diminution | not fluorescent | 
